Test results as given in ChEMBL document CHEMBL1149589, “The influence of the long chain fatty acid on the antagonistic activities of Rhizobium sin-1 lipid A” (Bioorg Med Chem, 2007).
Activity calls are given as the source filed them. No cut-off for these calls is given here.

System: MONO-MAC-6
Assay: Antagonistic activity against Escherichia coli LPS-induced TNFalpha production in human Mono Mac 6 cells after 5.5 hrs
Assay type: functional, cell-based
Conditions: for IC50: Homo sapiens, MONO-MAC-6, 5.5 h

SMILES | Inhibition [%] | IC50 [µM] | Activity
CCCCCCCCCCCCC[C@@H](O)CC(=O)N[C@H]1C(=O)O[C@H](CO[C@@H]2O[C@H](CO)[C@@H](O)[C@H](OC(=O)C[C@H](O)CCCCCCCCCCCCC)[C@H]2NC(=O)C[C@@H](CCCCCCCCCCCCC)OC(=O)CCCCCCCCCCCCCCCCCCCCCCCCCC(C)O)[C@@H](O)[C@@H]1OC(=O)C[C@H](O)CCCCCCCCCCCCC (some centres undefined) | 86 | 9.1 | –
CCCCCCCCCCCCCC(=O)O[C@H](CCCCCCCCCCCCC)CC(=O)N[C@H]1[C@H](OC[C@H]2OC(=O)[C@H](NC(=O)C[C@H](O)CCCCCCCCCCCCC)[C@@H](OC(=O)C[C@H](O)CCCCCCCCCCCCC)[C@@H]2O)O[C@H](CO)[C@@H](O)[C@@H]1OC(=O)C[C@H](O)CCCCCCCCCCCCC | – | – | Active
CCCCCCCCCCCCCCCCCCCCCCCCCCCC(=O)O[C@H](CCCCCCCCCCCCC)CC(=O)N[C@H]1[C@H](OC[C@H]2OC(=O)[C@H](NC(=O)C[C@H](O)CCCCCCCCCCCCC)[C@@H](OC(=O)C[C@H](O)CCCCCCCCCCCCC)[C@@H]2O)O[C@H](CO)[C@@H](O)[C@@H]1OC(=O)C[C@H](O)CCCCCCCCCCCCC | – | 7.5 | –
